According to paper PMC6199744, “Development of Chemical Proteomics for the Folateome and Analysis of the Kinetoplastid Folateome” (ACS Infectious Diseases, 2018):
Read-outs that look alike come from different tables or passages of the source.

Assays:
Format in all cases: binding
[1] = molecular target: T1, HeLa cell extract proteins (Homo sapiens, UniProt P04004); settings: HeLa; protein VTN
T1 construct: endogenous in cells; host or cells: HeLa cell extract
T1 sequence (P04004 20-478): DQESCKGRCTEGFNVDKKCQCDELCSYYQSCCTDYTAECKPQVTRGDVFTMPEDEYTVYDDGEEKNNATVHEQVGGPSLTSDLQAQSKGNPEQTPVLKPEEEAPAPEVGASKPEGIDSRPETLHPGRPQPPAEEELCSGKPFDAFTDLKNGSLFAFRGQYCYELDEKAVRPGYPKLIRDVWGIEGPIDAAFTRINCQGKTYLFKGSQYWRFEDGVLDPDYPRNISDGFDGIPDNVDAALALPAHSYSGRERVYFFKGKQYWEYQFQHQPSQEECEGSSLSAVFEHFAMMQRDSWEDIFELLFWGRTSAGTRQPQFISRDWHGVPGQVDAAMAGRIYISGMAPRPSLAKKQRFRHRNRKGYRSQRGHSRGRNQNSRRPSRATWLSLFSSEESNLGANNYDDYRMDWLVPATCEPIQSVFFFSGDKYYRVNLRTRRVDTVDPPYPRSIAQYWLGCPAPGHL

[2] = molecular target: T2, HeLa cell extract proteins (Homo sapiens, UniProt P26368); settings: protein U2AF2; HeLa
T2 construct: endogenous in cells; host or cells: HeLa cell extract

[3] = molecular target: T3, HeLa cell extract proteins (Homo sapiens, UniProt P49257); settings: protein LMAN1; HeLa
T3 construct: endogenous in cells; host or cells: HeLa cell extract
T3 sequence (P49257 31-510): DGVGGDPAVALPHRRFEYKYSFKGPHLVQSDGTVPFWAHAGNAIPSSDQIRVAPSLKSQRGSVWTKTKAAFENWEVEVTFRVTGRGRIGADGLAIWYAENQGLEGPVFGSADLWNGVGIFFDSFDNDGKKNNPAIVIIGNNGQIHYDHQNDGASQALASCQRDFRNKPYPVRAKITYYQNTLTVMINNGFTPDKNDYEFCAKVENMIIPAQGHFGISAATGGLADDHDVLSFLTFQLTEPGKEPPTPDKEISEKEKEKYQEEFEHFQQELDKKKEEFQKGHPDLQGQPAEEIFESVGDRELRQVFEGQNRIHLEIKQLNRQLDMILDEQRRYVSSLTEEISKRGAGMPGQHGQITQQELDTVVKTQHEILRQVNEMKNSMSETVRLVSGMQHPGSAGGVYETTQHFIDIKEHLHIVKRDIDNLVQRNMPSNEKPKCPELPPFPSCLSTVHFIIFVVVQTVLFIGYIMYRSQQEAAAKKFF

[4] = molecular target: T4, HeLa cell extract proteins (Homo sapiens, UniProt P60660); settings: HeLa; protein MYL6
T4 construct: endogenous in cells; host or cells: HeLa cell extract
T4 sequence (P60660 1-151): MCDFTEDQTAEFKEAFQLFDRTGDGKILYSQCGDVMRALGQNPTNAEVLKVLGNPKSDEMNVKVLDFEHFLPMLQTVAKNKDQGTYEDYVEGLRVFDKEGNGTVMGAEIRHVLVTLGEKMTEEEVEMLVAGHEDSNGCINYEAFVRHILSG

[5] = molecular target: T5, HeLa cell extract proteins (Homo sapiens, UniProt Q8TDH9); settings: protein MUTED; HeLa
T5 construct: endogenous in cells; host or cells: HeLa cell extract
T5 sequence (Q8TDH9 1-187): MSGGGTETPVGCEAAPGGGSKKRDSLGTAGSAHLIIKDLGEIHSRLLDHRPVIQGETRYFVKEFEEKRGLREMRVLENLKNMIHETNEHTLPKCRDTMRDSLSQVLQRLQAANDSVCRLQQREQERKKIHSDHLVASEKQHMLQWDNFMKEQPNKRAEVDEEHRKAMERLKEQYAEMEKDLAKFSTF

[6] = molecular target: T6, HeLa cell extract proteins (Homo sapiens, UniProt Q92688); settings: HeLa; protein ANP32B (ISOFORM 1 OF ACIDIC LEUCINE-RICH NUCLEAR PHOSPHOPROTEIN 32 FAMILY MEMBER B.)
T6 construct: endogenous in cells; host or cells: HeLa cell extract

[7] = molecular target: T7, HeLa cell extract proteins (Homo sapiens, UniProt P40938)
T7 construct: endogenous in cells; host or cells: HeLa cell extract

[8] = molecular target: T8, HeLa cell extract proteins (Homo sapiens, UniProt Q8IWA4)
T8 construct: endogenous in cells; host or cells: HeLa cell extract
T8 sequence (Q8IWA4 1-741): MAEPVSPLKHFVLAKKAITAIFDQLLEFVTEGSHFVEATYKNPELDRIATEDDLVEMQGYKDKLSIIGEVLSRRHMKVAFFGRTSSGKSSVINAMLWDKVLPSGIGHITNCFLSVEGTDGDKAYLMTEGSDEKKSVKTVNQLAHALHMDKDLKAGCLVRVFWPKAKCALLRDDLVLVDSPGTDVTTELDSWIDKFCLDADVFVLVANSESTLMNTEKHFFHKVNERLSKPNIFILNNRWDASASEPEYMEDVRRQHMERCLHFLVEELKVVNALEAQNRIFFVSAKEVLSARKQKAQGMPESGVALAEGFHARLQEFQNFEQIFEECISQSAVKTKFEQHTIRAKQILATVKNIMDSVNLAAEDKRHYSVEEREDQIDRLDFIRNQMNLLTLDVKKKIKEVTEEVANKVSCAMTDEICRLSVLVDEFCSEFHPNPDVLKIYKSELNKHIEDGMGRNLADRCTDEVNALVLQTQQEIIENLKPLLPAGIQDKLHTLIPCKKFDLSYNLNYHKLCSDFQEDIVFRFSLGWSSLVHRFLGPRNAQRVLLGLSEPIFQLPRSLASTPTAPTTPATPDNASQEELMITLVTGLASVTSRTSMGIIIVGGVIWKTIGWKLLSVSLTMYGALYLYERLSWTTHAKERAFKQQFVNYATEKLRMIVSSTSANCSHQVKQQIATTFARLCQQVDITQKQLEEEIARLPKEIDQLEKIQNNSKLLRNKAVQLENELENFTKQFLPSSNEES

[9] = molecular target: T9, HeLa cell extract proteins (Homo sapiens, UniProt Q9H4A4)
T9 construct: endogenous in cells; host or cells: HeLa cell extract

[10] = molecular target: T10, HeLa cell extract proteins (Homo sapiens, UniProt Q9UPT8)
T10 construct: endogenous in cells; host or cells: HeLa cell extract
T10 sequence (Q9UPT8 whole entry): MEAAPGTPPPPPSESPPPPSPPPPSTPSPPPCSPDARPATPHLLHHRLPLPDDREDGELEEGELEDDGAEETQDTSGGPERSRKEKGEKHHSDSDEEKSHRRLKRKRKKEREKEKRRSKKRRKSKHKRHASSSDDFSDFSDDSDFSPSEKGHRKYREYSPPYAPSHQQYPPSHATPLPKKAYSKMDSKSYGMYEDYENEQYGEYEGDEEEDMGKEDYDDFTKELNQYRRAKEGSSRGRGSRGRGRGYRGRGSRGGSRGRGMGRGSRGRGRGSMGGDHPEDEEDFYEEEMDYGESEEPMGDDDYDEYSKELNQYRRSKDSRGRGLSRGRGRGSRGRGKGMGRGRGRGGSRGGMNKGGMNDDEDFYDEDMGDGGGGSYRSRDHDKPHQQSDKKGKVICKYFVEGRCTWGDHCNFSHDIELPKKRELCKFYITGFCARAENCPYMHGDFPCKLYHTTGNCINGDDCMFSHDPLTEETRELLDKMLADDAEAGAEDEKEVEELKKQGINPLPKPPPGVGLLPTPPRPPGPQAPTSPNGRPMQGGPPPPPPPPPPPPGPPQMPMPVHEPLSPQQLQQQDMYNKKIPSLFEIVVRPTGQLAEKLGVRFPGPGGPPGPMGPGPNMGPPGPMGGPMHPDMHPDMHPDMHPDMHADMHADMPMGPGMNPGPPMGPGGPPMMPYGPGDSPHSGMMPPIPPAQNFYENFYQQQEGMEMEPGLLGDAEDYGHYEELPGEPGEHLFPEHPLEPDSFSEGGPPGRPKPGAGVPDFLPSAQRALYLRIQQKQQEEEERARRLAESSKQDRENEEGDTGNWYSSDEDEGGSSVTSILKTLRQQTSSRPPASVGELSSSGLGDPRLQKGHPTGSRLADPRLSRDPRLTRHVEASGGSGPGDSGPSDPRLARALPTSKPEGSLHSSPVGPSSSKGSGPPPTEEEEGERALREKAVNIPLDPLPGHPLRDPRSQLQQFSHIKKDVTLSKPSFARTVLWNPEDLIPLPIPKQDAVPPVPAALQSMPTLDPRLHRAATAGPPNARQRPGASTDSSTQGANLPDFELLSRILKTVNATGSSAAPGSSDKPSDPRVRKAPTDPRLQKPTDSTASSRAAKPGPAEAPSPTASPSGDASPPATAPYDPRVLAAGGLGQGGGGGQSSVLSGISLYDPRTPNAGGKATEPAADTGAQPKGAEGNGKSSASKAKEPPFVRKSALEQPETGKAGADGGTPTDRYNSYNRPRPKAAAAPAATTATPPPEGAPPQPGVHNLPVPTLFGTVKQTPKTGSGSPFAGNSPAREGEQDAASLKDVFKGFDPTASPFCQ

T9 sequence (Q9H4A4 whole entry): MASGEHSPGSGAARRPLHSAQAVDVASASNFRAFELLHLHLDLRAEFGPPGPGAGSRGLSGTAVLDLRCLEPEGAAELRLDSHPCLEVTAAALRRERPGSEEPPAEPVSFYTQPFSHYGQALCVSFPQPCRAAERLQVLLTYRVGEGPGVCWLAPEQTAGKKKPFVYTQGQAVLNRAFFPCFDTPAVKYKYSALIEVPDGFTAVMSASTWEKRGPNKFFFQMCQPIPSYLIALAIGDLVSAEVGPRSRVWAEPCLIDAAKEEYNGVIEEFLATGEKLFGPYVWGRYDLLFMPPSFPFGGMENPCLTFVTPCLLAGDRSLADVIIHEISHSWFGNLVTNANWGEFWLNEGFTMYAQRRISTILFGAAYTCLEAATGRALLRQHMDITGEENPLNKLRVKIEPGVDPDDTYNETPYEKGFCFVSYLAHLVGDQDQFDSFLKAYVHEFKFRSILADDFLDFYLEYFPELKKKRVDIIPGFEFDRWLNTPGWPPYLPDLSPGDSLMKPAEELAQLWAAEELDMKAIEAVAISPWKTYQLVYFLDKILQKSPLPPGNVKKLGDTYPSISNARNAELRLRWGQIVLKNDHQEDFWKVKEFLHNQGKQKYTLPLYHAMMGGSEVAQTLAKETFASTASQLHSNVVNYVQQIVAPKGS
T6 sequence (Q92688 whole entry, canonical isoform): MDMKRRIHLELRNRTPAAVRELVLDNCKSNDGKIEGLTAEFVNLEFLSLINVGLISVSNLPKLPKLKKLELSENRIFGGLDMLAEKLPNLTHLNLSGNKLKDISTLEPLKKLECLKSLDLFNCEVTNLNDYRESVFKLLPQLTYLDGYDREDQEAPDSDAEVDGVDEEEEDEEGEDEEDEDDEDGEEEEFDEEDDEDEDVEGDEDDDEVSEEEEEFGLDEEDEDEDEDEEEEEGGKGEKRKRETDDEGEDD
T2 sequence (P26368 whole entry): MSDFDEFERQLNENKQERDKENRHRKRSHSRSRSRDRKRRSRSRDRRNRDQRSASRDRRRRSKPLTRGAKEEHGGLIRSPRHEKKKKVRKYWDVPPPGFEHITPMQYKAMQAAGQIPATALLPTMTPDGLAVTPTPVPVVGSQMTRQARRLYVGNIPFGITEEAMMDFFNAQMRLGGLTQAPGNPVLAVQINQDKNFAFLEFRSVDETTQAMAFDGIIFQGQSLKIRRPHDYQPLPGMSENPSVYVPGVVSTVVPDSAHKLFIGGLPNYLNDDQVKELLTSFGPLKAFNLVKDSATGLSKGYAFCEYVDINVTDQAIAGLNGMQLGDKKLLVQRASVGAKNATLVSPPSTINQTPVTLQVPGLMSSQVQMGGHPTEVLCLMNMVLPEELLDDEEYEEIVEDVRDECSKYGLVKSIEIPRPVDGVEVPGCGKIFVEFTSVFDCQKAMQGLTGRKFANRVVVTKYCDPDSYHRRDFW
T7 sequence (P40938 whole entry): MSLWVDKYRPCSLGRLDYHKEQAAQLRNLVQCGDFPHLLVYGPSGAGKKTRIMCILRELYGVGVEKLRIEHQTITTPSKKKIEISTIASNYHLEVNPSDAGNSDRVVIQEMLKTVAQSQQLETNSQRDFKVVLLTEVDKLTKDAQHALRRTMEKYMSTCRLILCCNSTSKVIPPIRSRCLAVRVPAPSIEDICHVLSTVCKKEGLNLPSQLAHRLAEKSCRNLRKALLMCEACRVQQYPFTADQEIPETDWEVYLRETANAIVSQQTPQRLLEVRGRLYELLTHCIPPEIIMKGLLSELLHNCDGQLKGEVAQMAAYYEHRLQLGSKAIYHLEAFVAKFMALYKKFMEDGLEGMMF

| SMILES | fold changes relative to vehicle control [1] | fold changes relative to vehicle control [2] | fold changes relative to vehicle control [3] | fold changes relative to vehicle control [4] | fold changes relative to vehicle control [5] | fold changes relative to vehicle control [6] [fold] | fold changes relative to vehicle control ([7]; HeLa, protein RFC3) | fold changes relative to vehicle control ([8]; protein MFN1, HeLa) | fold changes relative to vehicle control ([9]; protein RNPEP, HeLa) | fold changes relative to vehicle control ([10]; HeLa, protein ZC3H4) | further results |
| --- | --- | --- | --- | --- | --- | --- | --- | --- | --- | --- | --- |
| Nc1nc2cccc(-c3ccccc3)c2n1Cc1ccc(Cl)c(Cl)c1 [compound 3] | 1.05 | 0.93 | 0.87 | 1.11 | 0.99 | 4.13 | – | – | – | – | – |
| CCCCCCOc1ccc(Cc2cnc(N)nc2N)cc1 [compound 1] | 1 | 1.12 | 1.17 | 1.14 | 1.09 | 1.88 | – | – | – | – | – |
| NCCCNc1ccc(C(=O)NC(CCC(=O)O)C(=O)O)cc1 (stereo not shown) [compound 7] | – | – | – | – | – | – | 1.16 | 1.02 | 0.74 | 1.01 | – |
| CCCCCCOc1cccc(Cc2cnc(N)nc2N)c1 [compound 2] | 0.91 | 1.36 | 1.57 | 1.3 | 1.65 | 3.3 | – | – | – | – | – |
| NCCOCCOCC(=O)Nc1nc2ncc(CNc3ccc(C(=O)NC(CCC(=O)O)C(=O)O)cc3)nc2c(=O)[nH]1 (stereo not shown) [compound 6] | – | – | – | – | – | – | 1.14 | 0.99 | 0.99 | 1.1 | – |
| Nc1nc2[nH]cc(CCc3ccc(C(=O)N[C@@H](CCC(=O)O)C(=O)O)cc3)c2c(=O)[nH]1 [PTX, pemetrexed] | – | – | – | – | – | – | – | – | – | – | fold changes relative to vehicle control [7]: 1.01; fold changes relative to vehicle control [8]: 0.89; fold changes relative to vehicle control [9]: 0.81; fold changes relative to vehicle control [10]: 1.06 |
| Nc1nc2c(c(=O)[nH]1)N(C=O)C(CNc1ccc(C(=O)N[C@@H](CCC(=O)O)C(=O)O)cc1)CN2 (stereo partly shown) [LEU, leucovorin] | – | – | – | – | – | – | 0.99 | 0.81 | 0.93 | 0.99 | – |
